What was measured:
SARS-CoV-2 = assay: COVID-19 model mice study: body weight and survival after D-Ala administration; format: in vivo, CAG-hACE2 mice
Procedure: FIG. 10 is a schematic diagram of the experimental protocol using coronavirus-infected mice in Example 2. CAG-hACE2 mice susceptible to SARS-CoV-2, which were developed at the National Institute of Biomedical Innovation, Health and Nutrition, were used. 2×10^2 to 10^4 of TCID50 of SARS-CoV-2 was administered to anesthetized 8—to 12-week-old individuals for bronchial infection to create a mouse model of coronavirus infection (Non-Patent Literature 9).
FIG. 12 is a schematic diagram of the experimental schedule of D-Ala administration to coronavirus-infected mice in Example 2. 8—to 12-week-old male and female CAG-hACE2 mice were subjected to intraperitoneal administration with a predetermined dose of D-Ala twice daily, which was stared from 2 days prior to the experiment. The mice were then infected with SARS-CoV-2 via the respiratory tract.

[1] = test system: H1N1 influenza A/Puerto Rico/8/34 (PR8 influenza virus strain); assay: Viral plaque quantification assay of lung tissue in influenza model mice; format: in vivo, C57BL6 mice; settings: FIG. 3A; day 5 after D-Ala administration; IAV+D-Ala vs IAV group, n=3 to 7
Text: (§1) FIG. 1 is a schematic diagram showing the experimental protocol for D-AA administration (+D-AA) to IAV and Mock in Example 1. C57BL6 mice (SLC, Tokyo, Japan) raised in a specific pathogen control facility were used. In order to increase the amount of virus in the mice in a short period of time, […] water containing 50 times the TCID50 (median tissue culture infectious dose, 50% infectious dose) of H1N1 influenza A/Puerto Rico/8/34 (PR8 influenza virus strain (ATCC, Manassas, USA) was administered intranasally to anesthetized 4-week-old individuals to infect them. After infection, individuals in each group were weighed and blood samples were collected on a predetermined schedule, and plasma chiral amino acids (D-amino acids and L-amino acids) were quantitatively analyzed by 2D-HPLC.
FIG. 3A is a graph showing the results of the viral plaque quantification assay of lung tissue on day 5 after D-Ala administration in the Mock, IAV, and IAV+D-Ala groups (n=3 to 7) in Example 1.

[2] = test system: H1N1 influenza A/Puerto Rico/8/34 (PR8 influenza virus strain); assay: Influenza model mice study: body weight and survival after D-amino acid administration; format: in vivo, C57BL6 mice
Text: as §1

[3] = FIG. 8, IAV (Vehicle), IAV+D-Ser, IAV+D-Ala groups
[4] = FIG. 9, IAV (Vehicle), IAV+D-Ser, IAV+D-Ala groups

| SMILES | survival curves, Kaplan-Meier analysis with death as the endpoint (SARS-CoV-2; FIG. 14, SCV (Vehicle) vs SCV+D-Ala) | rates of change in body weights over time (SARS-CoV-2; FIG. 17, SCV (Vehicle) vs SCV+D-Ala) | survival curves, Kaplan-Meier analysis with weight loss and death as composite endpoints (SARS-CoV-2; FIG. 18, SCV (Vehicle) vs SCV+D-Ala) | survival curves by blood D-Ala level, Kaplan-Meier analysis with death as the endpoint (SARS-CoV-2; FIG. 19, SCV+D-Ala group split into high (>4.72 μM) and low (<4.72 μM) BD-Ala) | amount of virus, viral plaque quantification assay of lung tissue [1] | rates of change in body weight ([2]; FIG. 2, IAV+D-Ala vs IAV group, n=3-10, *P<0.05) | survival curves, Kaplan-Meier analysis with death as the endpoint ([2]; FIG. 4, Mock, Mock+D-Ala, IAV, IAV+D-Ala groups, n=3-10) | survival curves, Kaplan-Meier analysis with death as the endpoint [2, 3] | rates of change in body weight [2, 4] |
| --- | --- | --- | --- | --- | --- | --- | --- | --- | --- |
| C[C@@H](N)C(=O)O [D-Ala, D-alanine] | suppressed the mortality | smaller rate of decrease in body weights | suppressed the weight loss and the mortality | better prognosis | increase in the amount of virus in the IAV+D-Ala group was suppressed | rates of weight loss were suppressed | suppressed the mortality rate | suppressed the mortality | rates of weight loss were suppressed |
| N[C@H](CO)C(=O)O [D-Ser, D-serine] |  |  |  |  |  |  |  | suppressed the mortality | rates of weight loss were suppressed |

— patent US20240145091A1, “METHOD FOR MODULATING THE AMOUNT OF VIRUS, METHOD FOR TREATING OR […] […], METHOD FOR […] AMOUNT OF VIRUS, AND METHOD FOR PREDICTING THE PROGNOSIS OF VIRUS INFECTION DISEASE IN SUBJECT, AS WELL AS COMPOSITION AND SYSTEM FOR THE SAME” (National Institutes of Biomedical Innovation, Health and …, priority 2022, published 2024)
